Laboratory results from patent publication US20110071180A1, “SUB-TYPE SELECTIVE AMIDES OF DIAZABICYCLOALKANES” (Targacept, Inc., priority 2008, published 2011).

Biological target: T1, rat α4β2 nAChR subtype (Rattus norvegicus, UniProt P09483+P12390)
T1 construct: The cerebral cortex was removed and placed in 20 volumes (weight:volume) of ice-cold preparative buffer; from tissue; host or cells: rat cerebral cortex membranes (female Sprague-Dawley)
Assay: Radioligand binding, [3H]nicotine, rat cortex membranes
Settings: [3H]nicotine 5 nM
Method: Preparation of Membranes from Rat Cortex: Rats (Female, Sprague-Dawley), weighing 150-250 g, were maintained on a 12 h light/dark cycle and were allowed free access to water and food supplied by PMI Nutrition International, Inc. Animals were anesthetized with 70% CO2, and then decapitated. Brains were removed and placed on an ice-cold platform. The cerebral cortex was removed and placed in 20 volumes (weight:volume) of ice-cold preparative buffer (137 mM NaCl, 10.7 mM KCl, 5.8 mM KH2PO4, 8 mM Na2HPO4, 20 mM HEPES (free acid), 5 mM iodoacetamide, 1.6 mM EDTA, pH 7.4); PMSF, dissolved in methanol to a final concentration of 100 μM, was added and the suspension was homogenized by Polytron. The homogenate was centrifuged at 18,000×g for 20 min at 4° C. and the resulting pellet was re-suspended in 20 volumes of ice-cold water. After 60 min incubation on ice, a new pellet was collected by centrifugation at 18,000×g for 20 min at 4° C. The final pellet was re-suspended in 10 volumes of buffer and stored at −20° C.
(§1) On the day of the assay, the frozen membranes were thawed and spun at 48,000×g for 20 min. The supernatant was decanted and discarded. The pellet was resuspended in Dulbecco's phosphate buffered saline (PBS, Life Technologies) pH 7.4 and homogenized with the Polytron for 6 seconds. Protein concentrations were determined using a Pierce BCA Protein Assay Kit, with bovine serum albumin as the standard (Pierce Chemical Company, Rockford, Ill.).
(§2) Membrane preparations (approximately 50 μg for human and 200-300 μg protein for rat α4β2) were incubated in PBS (50 μL and 100 μL respectively) in the presence of competitor compound (0.01 nM to 100 μM) and 5 nM [^3H]nicotine for 2-3 hours on ice. Incubation was terminated by rapid filtration on a multi-manifold tissue harvester (Brandel, Gaithersburg, Md.) using GF/B filters presoaked in 0.33% polyethyleneimine (w/v) to reduce non-specific binding. Tissue was rinsed 3 times in PBS, pH 7.4. Scintillation fluid was added to filters containing the washed tissue and allowed to equilibrate. Filters were then counted to determine radioactivity bound to the membranes by liquid scintillation counting (2200CA Tri-Carb LSC, Packard Instruments, 50% efficiency or Wallac Trilux 1450 MicroBeta, 40% efficiency, Perkin Elmer).
(§3) Data were expressed as disintegrations per minute (DPMs). Within each assay, each point had 2-3 replicates. The replicates for each point were averaged and plotted against the log of the drug concentration. IC50, which is the concentration of the compound that produces 50% inhibition of binding, was determined by least squares non-linear regression. Ki values were calculated using the Cheng-Prussof equation (1973): […]

T1 sequence (P09483 31-630): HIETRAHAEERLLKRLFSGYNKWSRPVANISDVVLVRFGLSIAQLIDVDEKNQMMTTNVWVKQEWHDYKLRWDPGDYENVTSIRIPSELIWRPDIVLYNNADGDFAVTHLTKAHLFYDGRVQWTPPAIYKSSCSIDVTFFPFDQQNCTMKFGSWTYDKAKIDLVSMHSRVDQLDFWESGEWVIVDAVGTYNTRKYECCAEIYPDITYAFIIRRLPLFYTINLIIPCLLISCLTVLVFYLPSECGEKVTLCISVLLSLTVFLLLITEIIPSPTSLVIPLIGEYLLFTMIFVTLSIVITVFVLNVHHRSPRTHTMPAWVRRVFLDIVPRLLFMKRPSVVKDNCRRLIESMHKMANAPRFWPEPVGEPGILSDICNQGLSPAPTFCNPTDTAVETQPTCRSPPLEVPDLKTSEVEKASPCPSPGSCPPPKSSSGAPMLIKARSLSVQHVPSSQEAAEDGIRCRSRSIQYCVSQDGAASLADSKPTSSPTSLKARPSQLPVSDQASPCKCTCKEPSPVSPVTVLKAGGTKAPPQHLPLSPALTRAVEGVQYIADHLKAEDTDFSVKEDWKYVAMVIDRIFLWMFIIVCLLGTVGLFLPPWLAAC
T1 sequence (P12390 25-500): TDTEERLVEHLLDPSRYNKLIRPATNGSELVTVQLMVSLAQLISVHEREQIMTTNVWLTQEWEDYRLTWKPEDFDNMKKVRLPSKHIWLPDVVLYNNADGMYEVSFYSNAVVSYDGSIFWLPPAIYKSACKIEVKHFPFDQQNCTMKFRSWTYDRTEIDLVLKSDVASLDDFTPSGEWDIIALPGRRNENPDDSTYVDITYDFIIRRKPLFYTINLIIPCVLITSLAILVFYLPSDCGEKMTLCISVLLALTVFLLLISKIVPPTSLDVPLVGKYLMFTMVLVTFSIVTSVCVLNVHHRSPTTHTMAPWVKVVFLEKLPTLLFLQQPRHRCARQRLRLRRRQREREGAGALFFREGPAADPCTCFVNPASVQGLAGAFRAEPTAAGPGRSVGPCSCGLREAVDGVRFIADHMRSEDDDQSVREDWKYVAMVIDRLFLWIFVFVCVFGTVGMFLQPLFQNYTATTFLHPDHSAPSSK

Structure (SMILES) | Ki [nM]
O=C(C1CC2CCC1C2)N1CC2CNCC2C1 (stereo not drawn) [Example 10-42] | 139
O=C(C1CC2C=CC1C2)N1CC2CNCC2C1 (stereo not drawn) [Example 10-43] | 34
O=C([C@@H]1CC2C=CC1C2)N1CC2CNCC2C1 (stereo partly drawn) [Example 10-44] | 9.3
O=C(C1C2CCCCC21)N1CC2CNCC2C1 (stereo not drawn) [Example 10-45] | 26
O=C(C1C[C@H]2C=C[C@@H]1CC2)N1CC2CNCC2C1 (stereo partly drawn) [Example 10-46] | 236
O=C1CCCC2=C1CC(C(=O)N1CC3CNCC3C1)CC2 (stereo not drawn) [Example 10-47] | 369
O=C(C1CC=CCC1c1cccnc1)N1CC2CNCC2C1 (stereo not drawn) [Example 10-48] | 999
O=C(C1CC=CCC1)N1CC2CNCC2C1 (stereo not drawn) [Example 10-49] | 236
C[C@@H]1C(C(=O)N2CC3CNCC3C2)[C@@H]1C (stereo partly drawn) [Example 10-51] | 17.6
CC1C(C)C1C(=O)N1CC2CNCC2C1 (stereo not drawn) [Example 10-52] | 133
COC1CC(C(=O)N2CC3CNCC3C2)C1 (stereo not drawn) [Example 10-53] | 83.7
O=C(C1CC(F)(F)C1)N1CC2CNCC2C1 (stereo not drawn) [Example 10-54] | 20.3
CC(=O)N1CC2CNCC(C2)C1 [Example 10-55] | 18.7
O=C(C1CC1)N1CC2CNCC(C2)C1 [Example 10-56] | 2.8
CC(C)(C)C(=O)N1CC2CNCC(C2)C1 [Example 10-57] | 112
O=C(C1=CCCC1)N1CC2CNCC(C2)C1 [Example 10-58] | 177
O=C(C(F)F)N1CC2CNCC(C2)C1 [Example 10-59] | 1.7
CC(C)=CC(=O)N1CC2CNCC(C2)C1 [Example 10-60] | 25.9
COCC(=O)N1CC2CNCC(C2)C1 [Example 10-61] | 50

Biological target: T2, human α4β2 nAChR subtype (Homo sapiens, UniProt P17787+P43681)
T2 construct: expressed in transfected cells; host or cells: SH-EP1 clonal cells expressing human α4β2
T2 sequence (P43681 29-627 limits assumed): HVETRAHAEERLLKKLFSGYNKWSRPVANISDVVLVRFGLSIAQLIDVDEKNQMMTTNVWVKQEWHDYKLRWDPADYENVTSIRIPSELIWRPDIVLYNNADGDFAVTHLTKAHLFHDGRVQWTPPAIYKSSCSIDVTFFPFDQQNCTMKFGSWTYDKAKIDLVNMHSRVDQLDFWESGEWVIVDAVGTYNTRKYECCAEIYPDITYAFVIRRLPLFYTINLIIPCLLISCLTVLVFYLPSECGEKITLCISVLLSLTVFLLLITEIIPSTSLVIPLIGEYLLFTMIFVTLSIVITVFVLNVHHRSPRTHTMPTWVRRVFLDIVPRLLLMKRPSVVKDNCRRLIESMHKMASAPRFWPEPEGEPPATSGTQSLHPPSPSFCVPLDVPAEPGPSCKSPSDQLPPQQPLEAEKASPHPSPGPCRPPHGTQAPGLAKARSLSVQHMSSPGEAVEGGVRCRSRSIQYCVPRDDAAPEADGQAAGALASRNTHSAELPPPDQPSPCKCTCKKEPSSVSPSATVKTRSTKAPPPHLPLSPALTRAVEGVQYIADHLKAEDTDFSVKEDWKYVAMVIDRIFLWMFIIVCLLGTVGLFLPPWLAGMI
T2 sequence (P17787 26-502): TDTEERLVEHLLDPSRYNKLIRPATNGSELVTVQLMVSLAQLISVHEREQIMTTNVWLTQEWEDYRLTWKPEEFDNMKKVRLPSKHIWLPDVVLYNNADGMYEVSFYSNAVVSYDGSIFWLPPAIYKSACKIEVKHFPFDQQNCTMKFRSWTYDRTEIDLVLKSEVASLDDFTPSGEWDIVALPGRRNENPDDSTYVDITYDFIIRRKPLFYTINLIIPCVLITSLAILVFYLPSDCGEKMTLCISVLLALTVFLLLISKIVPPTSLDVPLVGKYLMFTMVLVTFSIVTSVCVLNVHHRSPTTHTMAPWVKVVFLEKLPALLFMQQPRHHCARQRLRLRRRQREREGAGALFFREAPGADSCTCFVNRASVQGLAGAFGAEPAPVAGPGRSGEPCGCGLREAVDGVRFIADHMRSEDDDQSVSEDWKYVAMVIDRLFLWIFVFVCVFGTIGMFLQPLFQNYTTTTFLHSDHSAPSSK
Assay: Radioligand binding, [3H]nicotine, membranes from SH-EP1/human α4β2 clonal cells
Settings: [3H]nicotine 5 nM, SH-EP1/human α4β2 cell membranes
Method: Preparation of membranes from SH-EP1/human α4β2 clonal cells: Cell pellets from 40 150 mm culture dishes were pooled, and homogenized by Polytron (Kinematica GmbH, Switzerland) in 20 milliliters of ice-cold preparative buffer. The homogenate was centrifuged at 48,000 g for 20 minutes at 4° C. The resulting pellet was re-suspended in 20 mL of ice-cold preparative buffer and stored at −20° C.
as §1, §2, §3

Structure (SMILES) | Ki [nM]
O=C(C1CC2CCC1C2)N1CC2CNCC2C1 (stereo not drawn) [Example 10-42] | 64.6
O=C(C1CC2C=CC1C2)N1CC2CNCC2C1 (stereo not drawn) [Example 10-43] | 15.8
O=C([C@@H]1CC2C=CC1C2)N1CC2CNCC2C1 (stereo partly drawn) [Example 10-44] | 3.4
O=C(C1C2CCCCC21)N1CC2CNCC2C1 (stereo not drawn) [Example 10-45] | 8.6
O=C(C1C[C@H]2C=C[C@@H]1CC2)N1CC2CNCC2C1 (stereo partly drawn) [Example 10-46] | 44.5
O=C1CCCC2=C1CC(C(=O)N1CC3CNCC3C1)CC2 (stereo not drawn) [Example 10-47] | 419
O=C(C1CC=CCC1c1cccnc1)N1CC2CNCC2C1 (stereo not drawn) [Example 10-48] | 345
O=C(C1CC=CCC1)N1CC2CNCC2C1 (stereo not drawn) [Example 10-49] | 133
C[C@@H]1C(C(=O)N2CC3CNCC3C2)[C@@H]1C (stereo partly drawn) [Example 10-51] | 44.6
CC1C(C)C1C(=O)N1CC2CNCC2C1 (stereo not drawn) [Example 10-52] | 12.2
COC1CC(C(=O)N2CC3CNCC3C2)C1 (stereo not drawn) [Example 10-53] | 147
O=C(C1CC(F)(F)C1)N1CC2CNCC2C1 (stereo not drawn) [Example 10-54] | 5.7
CC(=O)N1CC2CNCC(C2)C1 [Example 10-55] | 20.2
O=C(C1CC1)N1CC2CNCC(C2)C1 [Example 10-56] | 0.4
CC(C)(C)C(=O)N1CC2CNCC(C2)C1 [Example 10-57] | 126
O=C(C1=CCCC1)N1CC2CNCC(C2)C1 [Example 10-58] | 468
O=C(C(F)F)N1CC2CNCC(C2)C1 [Example 10-59] | 24.6
CC(C)=CC(=O)N1CC2CNCC(C2)C1 [Example 10-60] | 13.8
COCC(=O)N1CC2CNCC(C2)C1 [Example 10-61] | 38.8

Biological target: T3, α7 nAChR subtype (Rattus norvegicus, UniProt Q05941)
T3 construct: The hippocampus was removed and placed in 10 volumes (weight:volume) of ice-cold preparative buffer; from tissue; host or cells: rat hippocampus membranes (female Sprague-Dawley)
T3 sequence (Q05941 23-502): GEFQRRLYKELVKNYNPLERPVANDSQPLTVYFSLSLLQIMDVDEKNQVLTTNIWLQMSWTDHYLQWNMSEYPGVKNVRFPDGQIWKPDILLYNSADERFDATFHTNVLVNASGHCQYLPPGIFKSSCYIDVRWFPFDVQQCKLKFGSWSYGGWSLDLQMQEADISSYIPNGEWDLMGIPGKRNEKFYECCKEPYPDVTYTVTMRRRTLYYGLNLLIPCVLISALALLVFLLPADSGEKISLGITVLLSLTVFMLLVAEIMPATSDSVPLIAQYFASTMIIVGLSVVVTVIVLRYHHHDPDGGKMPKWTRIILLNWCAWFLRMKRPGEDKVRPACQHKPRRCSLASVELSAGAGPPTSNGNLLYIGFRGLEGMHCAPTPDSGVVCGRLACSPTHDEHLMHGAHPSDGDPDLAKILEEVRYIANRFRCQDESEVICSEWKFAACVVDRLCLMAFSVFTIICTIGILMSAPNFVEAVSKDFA
Assay: Radioligand binding, [3H]MLA, rat hippocampus membranes
Settings: [3H]MLA 5 nM, rat hippocampus membranes; read-out: α7 Ki
Method: Rats (female, Sprague-Dawley), weighing 150-250 g, were maintained on a 12 h light/dark cycle and were allowed free access to water and food supplied by PMI Nutrition International, Inc. Animals were anesthetized with 70% CO2, then decapitated. Brains were removed and placed on an ice-cold platform. The hippocampus was removed and placed in 10 volumes (weight:volume) of ice-cold preparative buffer (137 mM NaCl, 10.7 mM KCl, 5.8 mM KH2PO4, 8 mM Na2HPO4, 20 mM HEPES (free acid), 5 mM iodoacetamide, 1.6 mM EDTA, pH 7.4); PMSF, dissolved in methanol to a final concentration of 100 μM, was added and the tissue suspension was homogenized by Polytron. The homogenate was centrifuged at 18,000×g for 20 min at 4° C. and the resulting pellet was re-suspended in 10 volumes of ice-cold water. After 60 min incubation on ice, a new pellet was collected by centrifugation at 18,000×g for 20 min at 4° C. The final pellet was re-suspended in 10 volumes of buffer and stored at −20° C. On the day of the assay, tissue was thawed, centrifuged at 18,000×g for 20 min, and then re-suspended in ice-cold PBS (Dulbecco's Phosphate Buffered Saline, 138 mM NaCl, 2.67 mM KCl, 1.47 mM KH2PO4, 8.1 mM Na2HPO4, 0.9 mM CaCl2, 0.5 mM MgCl2, Invitrogen/Gibco, pH 7.4) to a final concentration of approximately 2 mg protein/mL. Protein was determined by the method of Lowry et al., J. Biol. Chem. 193: 265 (1951), using bovine serum albumin as the standard.
The binding of [^3H]MLA was measured using a modification of the methods of Davies et al., Neuropharmacol. 38: 679 (1999). [^3H]MLA (Specific Activity=25-35 Ci/mmol) was obtained from Tocris. The binding of [^3H]MLA was determined using a 2 h incubation at 21° C. Incubations were conducted in 48-well micro-titre plates and contained about 200 μg of protein per well in a final incubation volume of 300 μL. The incubation buffer was PBS and the final concentration of [^3H]MLA was 5 nM. The binding reaction was terminated by filtration of the protein containing bound ligand onto glass fiber filters (GF/B, Brandel) using a Brandel Tissue Harvester at room temperature. Filters were soaked in de-ionized water containing 0.33% polyethyleneimine to reduce non-specific binding. Each filter was washed with PBS (3×1 mL) at room temperature. Non-specific binding was determined by inclusion of 50 μM non-radioactive MLA in selected wells.
The inhibition of [^3H]MLA binding by test compounds was determined by including seven different concentrations of the test compound in selected wells. Each concentration was replicated in triplicate. IC50 values were estimated as the concentration of compound that inhibited 50 percent of specific [^3H]MLA binding. Inhibition constants (Ki values), reported in nM, were calculated from the IC50 values using the method of Cheng et al., Biochem. Pharmacol. 22: 3099-3108 (1973).

Structure (SMILES) | Ki [nM]
O=C(C1C2CCCCC21)N1CC2CNCC2C1 (stereo not drawn) [Example 10-45] | 508
C[C@@H]1C(C(=O)N2CC3CNCC3C2)[C@@H]1C (stereo partly drawn) [Example 10-51] | 4790
CC(=O)N1CC2CNCC(C2)C1 [Example 10-55] | 3280
O=C(C1CC1)N1CC2CNCC(C2)C1 [Example 10-56] | 95.7
O=C(C(F)F)N1CC2CNCC(C2)C1 [Example 10-59] | 295
COCC(=O)N1CC2CNCC(C2)C1 [Example 10-61] | 1470

Same assay, conditions: read-out: α7 high through-put screening (HTS) result

Structure (SMILES) | inhibition at 5 µM [%]
O=C(C1CC2CCC1C2)N1CC2CNCC2C1 (stereo not drawn) [Example 10-42] | < 50
O=C(C1CC2C=CC1C2)N1CC2CNCC2C1 (stereo not drawn) [Example 10-43] | < 50
O=C([C@@H]1CC2C=CC1C2)N1CC2CNCC2C1 (stereo partly drawn) [Example 10-44] | < 50
O=C(C1C[C@H]2C=C[C@@H]1CC2)N1CC2CNCC2C1 (stereo partly drawn) [Example 10-46] | < 50
O=C1CCCC2=C1CC(C(=O)N1CC3CNCC3C1)CC2 (stereo not drawn) [Example 10-47] | < 50
O=C(C1CC=CCC1c1cccnc1)N1CC2CNCC2C1 (stereo not drawn) [Example 10-48] | < 50
O=C(C1CC=CCC1)N1CC2CNCC2C1 (stereo not drawn) [Example 10-49] | < 50
CC1C(C)C1C(=O)N1CC2CNCC2C1 (stereo not drawn) [Example 10-52] | < 50
COC1CC(C(=O)N2CC3CNCC3C2)C1 (stereo not drawn) [Example 10-53] | < 50
O=C(C1CC(F)(F)C1)N1CC2CNCC2C1 (stereo not drawn) [Example 10-54] | < 50
CC(C)(C)C(=O)N1CC2CNCC(C2)C1 [Example 10-57] | < 50
O=C(C1=CCCC1)N1CC2CNCC(C2)C1 [Example 10-58] | < 50
CC(C)=CC(=O)N1CC2CNCC(C2)C1 [Example 10-60] | < 50
